From US20160046603A1, “Crystalline Forms of D-Glucitol, 1-Deoxy-1-(Methylamino)-, 1-(6-Amino-3,5-Difluoropyridine-2-Yl)-8-Chloro-6-Fluoro-1,4-Dihydro-7-(3-Hydroxyazetidin-1-Yl)-4-Oxo-3-Quinolinecarboxylate” (MELINTA THERAPEUTICS, INC., priority 2013, published 2016)

Legend:
[1] = Phase 2 trials, nearly 1,400 patients; cited from earlier work
topoisomerase and gyrase = details: cited from earlier work
[2] = test system: Gram-negative and Gram-negative bacteria; details: cited from earlier work
[3] = Intrinsic dissolution rate; format: physicochemical
Method: Approximately 100 mg of the pure test compound was compressed under high pressure (7 ton), using a constructed die. No additives were added, thus avoiding any external interference in the intrinsic dissolution profile. The resulting non-disintegrating disc was transferred to the dissolution apparatus, Distek model 5100 premiere dissolution system, containing 900 mL of pH 5 buffer with 15 mM hexadecyl trimethyl ammonium bromide (HTAB), pre-heated to 37° C. The stirring speed of the paddle was set to 50 rpm. The solution was sampled at set time points with the resulting aliquots analyzed directly by HPLC, with reference to standard solutions. 5 standards, with concentrations ranging from 0.03 to 0.005 mg/mL in deionized water, and the sample solutions were injected, together with blank injections of the deionized water. The concentration was calculated using the peak areas determined by integration of the peak found at the same retention time as the principal peak in the standard injection.

[4] = Solid-state stability / polymorph conversion followed by XRPD; format: physicochemical; details: for thermodynamic stability: Form 1A versus Form 1B
Method: X-Ray Powder Diffraction patterns were collected on a Bruker AXS C2 GADDS diffractometer using Cu Kα radiation (40 kV, 40 mA), automated XYZ stage, laser video microscope for auto-sample positioning and a HiStar 2-dimensional area detector. X-ray optics consists of a single Gael multilayer mirror coupled with a pinhole collimator of 0.3 mm. A weekly performance check was carried out using a certified standard NIST 1976 Corundum (flat plate). Similar instruments can be used to obtain XRPD patterns.
The beam divergence, i.e. the effective size of the X-ray beam on the sample, was approximately 4 mm. A θ-θ continuous scan mode was employed with a sample—detector distance of 20 cm which gives an effective 2θ range of 3.2°-29.7°. The samples were exposed to the X-ray beam for approximately 120 seconds. The software used for data collection was GADDS for WNT 4.1.16 and the data were analyzed and presented using Diffrac Plus EVA v11.0.0.2 or v13.0.0.2.
Samples run under ambient conditions were prepared as flat plate specimens using powder as received without grinding. Approximately 1-2 mg of the sample was lightly pressed on a glass slide to obtain a flat surface.

[5] = Modulated differential scanning calorimetry (mDSC); format: physicochemical; details: mDSC thermogram, FIG. 4
Method: DSC data were collected on a TA Instruments Q2000 equipped with a 50 position autosampler. Similar instruments can be used to collect DSC data. The calibration for thermal capacity was carried out using sapphire and the calibration for energy and temperature was carried out using certified indium. Modulated temperature DSC was carried out using an underlying heating rate of 2° C./min and temperature modulation parameters of ±1.2° C. (amplitude) every 60 seconds (period). Typically 0.5-3 mg of each sample, in a pin-holed aluminum pan, was heated at […] from 25° C. to 220° C. A purge of dry nitrogen at 50 ml/min was maintained over the sample. The instrument control software was Advantage for Q Series v2.8.0.392 and Thermal Advantage v4.8.3 and the data were analyzed using Universal Analysis v4.4A.

[6] = over the parent acid; cited from earlier work

Nc1nc(-n2cc(C(=O)O)c(=O)c3cc(F)c(N4CC(O)C4)c(Cl)c32)c(F)cc1F [Delafloxacin, 1-deoxy-1-(methylamino)-, 1-(6-amino-3,5-difluoropyridin-2-yl)-8-chloro-6-fluoro-1,4-dihydro-7-(3-hydroxyazetidin-1-yl)-4-oxo-3-quinolinecarboyxlate]
tolerance and safety [1]: good tolerance and safety | inhibition of topoisomerase and gyrase enzyme targets (topoisomerase and gyrase): balanced inhibition | potency against bacteria [2]: highly potent

CNC[C@H](O)[C@@H](O)[C@H](O)[C@H](O)CO.Nc1nc(-n2cc(C(=O)O)c(=O)c3cc(F)c(N4CC(O)C4)c(Cl)c32)c(F)cc1F [Form 1B, D-glucitol, 1-deoxy-1-(methylamino)-, 1-(6-amino-3,5-difluoropyridin-2-yl)-8-chloro-6-fluoro-1,4-dihydro-7-(3-hydroxyazetidin-1-yl)-4-oxo-3-quinolinecarboyxlate]
initial dissolution rate (intrinsic dissolution profile) ([3]; compressed disc, 900 mL pH 5 buffer with 15 mM HTAB, 37° C., 50 rpm, compared with the other phase): significantly faster initial dissolution rates | dissociation to the free acid post IDR ([3]; confirmed by 1H NMR analyses post IDR): almost complete dissociation to the free acid | thermodynamic stability [4]: metastable | conversion of polymorphic form ([4]; exposure to humidity and heat, followed by XRPD b-axis reflections): converts to crystalline anhydrous Form 1A delafloxacin meglumine on exposure to humidity and heat | non-reversible transition of Form 1B to Form 1A [5]: about 94 °C

CNC[C@H](O)[C@@H](O)[C@H](O)[C@H](O)CO.Nc1nc(-n2cc(C(=O)O)c(=O)c3cc(F)c(N4CC(O)C4)c(Cl)c32)c(F)cc1F [Form 1A, D-glucitol, 1-deoxy-1-(methylamino)-, 1-(6-amino-3,5-difluoropyridin-2-yl)-8-chloro-6-fluoro-1,4-dihydro-7-(3-hydroxyazetidin-1-yl)-4-oxo-3-quinolinecarboyxlate]
dissolution characteristics ([3]; Form 1A versus Form 1B): improved dissolution characteristics | thermodynamic stability [4]: thermodynamic stability over Form 1B

CNC[C@H](O)[C@@H](O)[C@H](O)[C@H](O)CO.Nc1nc(-n2cc(C(=O)O)c(=O)c3cc(F)c(N4CC(O)C4)c(Cl)c32)c(F)cc1F [D-glucitol, 1-deoxy-1-(methylamino)-, 1-(6-amino-3,5-difluoropyridin-2-yl)-8-chloro-6-fluoro-1,4-dihydro-7-(3-hydroxyazetidin-1-yl)-4-oxo-3-quinolinecarboyxlate]
solubility, dissolution and bioavailability [6]: improved solubility, dissolution and bioavailability
